Among the data in a melting point compilation (Tetko et al.; mined from patent text by program, amines drawn as free bases though some values may be those of a salt) are melting point values, retold here.

Molecules are shown by their SMILES.

On to `CN1CCN(Cc2ccc(-c3cc4ncc(C#N)c(Nc5ccc(Oc6ccccc6)cc5)c4s3)cc2)CC1`, for which the melting point (in general, the temperature of the solid-liquid transition) was in the range of 199 to 201 °C.

The compound `C/C(=C\Cn1oc(=O)[nH]c1=O)c1cccc(OCc2nc(-c3ccc(OCC(F)(F)F)cc3)oc2C)c1` registered a melting point of 145 to 146 °C.

Take `Clc1ccc2c(NCCCN3CCCCC3)ccnc2c1`: the melting point fell in the range of 113 to 116 °C.

Regarding `N#CC(SSC(C#N)c1c[nH]c2ccccc12)c1c[nH]c2ccccc12` (stereo not drawn), the melting point is 169 to 170 °C.

As to `CN1C(=O)[C@H](NC(=O)C2CCC3(CC2)CCN(C(=O)OC(C)(C)C)CC3)N=C(c2ccccc2)c2ccccc21`, the melting point lay within 135 to 138 °C.

For `O=C(O)c1cccc(-c2ccc3c(c2)N(c2ccc(Cl)cc2Cl)CCO3)c1`, the melting point lay in the range of 222 to 223 °C.

`CCCC(NS(N)(=O)=O)C(=O)OC` (stereo not drawn) returned a melting point of 63 to 64 °C.

`COC(=O)c1sccc1Oc1ncc(OC)c(OC)n1` showed a melting point of 107 to 109 °C.

As for `Cc1ccc(SN(CC(=O)OCc2ccccc2)CP(=O)(Oc2ccccc2)Oc2ccccc2)cc1`, the melting point is 108 to 111 °C.

In turn, `CCCc1c(OCCOc2cccc(C(=O)O)c2)ccc(C(C)=O)c1O` returned a melting point of 155 °C.

On to `CC(C)CN(Cc1nc(-c2ncn3c2CN(C)C(=O)c2ccccc2-3)no1)CC(C)C`, for which the melting point fell in the range of 170 to 172 °C.

Regarding `CSCCCOc1nc(-c2ccc(F)cc2C)c2ccc(=O)n(-c3c(F)cccc3F)c2n1`, the melting point fell in the range of 127 to 128 °C.

In turn, `COc1ccc(C(=C(c2ccccc2)C(F)(F)F)c2ccc(F)cc2)cc1` displayed a melting point of 52 to 56 °C.

In the case of `COc1cc(N)c(C#N)cc1C(=O)O`, the melting point came to 237 °C.

On to `COc1ccc(Cc2c(C(=O)O)n(CC3CC3)c3ccccc23)cc1`, for which the melting point was in the range of 162 to 163 °C.

For the compound `CN(C)c1ccc(C(c2ccccc2)c2c(C(=O)O)[nH]c3ccccc23)cc1` (stereo not drawn), the melting point lay within 72 to 78 °C.

Compound `O=[N+]([O-])c1cnc2ccc(Oc3ccc(CNc4ncncc4Cl)cc3)nn12` yielded a melting point of 185 °C.

Consider `COc1cc(OC)nc(Oc2cccc(Oc3nc(OC)cc(OC)n3)c2CBr)n1`, for which the melting point was determined as 127 °C.

Compound `Cc1nc(-c2nc(-c3ccc(F)cc3)c(-c3ccc(S(C)(=O)=O)cc3)s2)cs1` showed a melting point of 184 to 186 °C.

Take `CCCCc1nc(O)cc(CCl)n1`: the melting point lay within 102 to 104 °C.

For the compound `CCCC1CC(=O)Nc2c1cnn2CC` (stereo not drawn), the melting point is 108 to 110 °C.

Compound `CCOC(=O)c1c(C(C)C)c(S(=O)(=O)c2ccc(OC)cc2)n2ccccc12` gave a melting point of 103 to 104 °C.

The compound `c1ccc(OCCSCc2nnc(-c3ccc(OCc4ccccn4)cc3)o2)cc1` displayed a melting point of 115 °C.

In the case of `CCCCc1cnc(-c2ccc(N=C=O)cc2)nc1`, the melting point amounted to 48 °C.

Compound `O=C(Nc1cc(C(F)(F)F)c[nH]c1=O)c1ccccc1` yielded a melting point of 207 to 210 °C.

In the case of `N#Cc1c(Cl)cccc1C(Cl)(Cl)Cl`, the melting point lay in the range of 121 to 122 °C.

The compound `COCCC(=O)OC[C@@H]1CC(c2ccc(-c3ccc(N4C[C@H](Cn5ccnn5)OC4=O)cc3F)cn2)=NO1` had a melting point of 149 °C.

Consider `OC(Cc1ccc(Cl)cc1Cl)(Cn1ccnc1)c1ccc(F)cc1` (stereo not drawn), for which the melting point is 178 to 179 °C.

On to `CC(C)CC(NC(c1ccc(-c2ccc(S(C)(=O)=O)cc2)cc1)C(F)(F)F)C(=O)NC(C#N)CC(=O)OCc1ccccc1` (stereo not drawn), for which the melting point amounted to 111 °C.

The compound `CCOc1nn(Cc2cccc(OCc3nc(-c4ccccc4)oc3C)n2)cc1CCC(=O)O` had a melting point of 144 to 145 °C.

`O=C1NC(=O)C(S(=O)(=O)c2ccc3ccccc3c2)S1` (stereo not drawn) yielded a melting point of 196 to 197 °C.

In turn, `C=CC[C@@H]1C[C@@H](COC(c2ccccc2)(c2ccccc2)c2ccccc2)N(Cc2ccc(OC)cc2)C1=O` registered a melting point of 130 to 132 °C.

`Cc1c(C)c2c(c(C)c1N)OC(C)(C)C2c1ccc(C(C)C)cc1` (stereo not drawn): the melting point fell in the range of 120 to 121 °C.

`CCOc1ccc2c(c1)n(-c1ccccn1)c(=O)n2S(=O)(=O)c1ccc([N+](=O)[O-])cc1OC` came in with a melting point of 175 °C.

Turning to `O=[N+]([O-])c1ccc(N2CCN(CCCN3c4cccc5cccc(c45)S3(=O)=O)CC2)cc1`, the melting point came out at 186 °C.

The compound `CCN(CC)CCNC(=O)c1c(I)ccc2c(=O)c3ccccc3[nH]c12` had a melting point of 215 to 217 °C.

`O=C(Nc1ccc2[nH]ncc2c1)O[C@@H](c1cc(F)cc(Cl)c1)[C@H]1CCCCN1` registered a melting point of 220 °C.

Regarding `COC(=O)C1OC(I)C(OC(=O)C(C)(C)C)C(OC(=O)C(C)(C)C)C1OC(=O)C(C)(C)C` (stereo not drawn), the melting point fell in the range of 98 to 100 °C.

Compound `CSc1ccc(C2=C(c3ccccc3)C(=O)OC23CCCC3)cc1` gave a melting point of 147 to 148 °C.

In turn, `CCc1ccc(C2CCCN2S(=O)(=O)c2ccc(C)cc2)cc1` (racemic) had a melting point of 92 °C.

For the compound `COc1cccc(Oc2cccc(NC(=O)c3ccn4c3CSC4c3cccnc3)c2)c1` (stereo not drawn), the melting point came to 130 °C.

As to `O=Cc1cn(Cc2ccc(OCc3ccccc3)cc2)nc1OCc1ccc(OCc2ccccc2)cc1`, the melting point lay in the range of 138 to 139 °C.

As for `COc1ccc(OC)c(OCCO)c1`, the melting point fell in the range of 50 to 52 °C.

For `COc1ccc(C(CC(=O)O)N2C(=O)c3cccc([N+](=O)[O-])c3C2=O)cc1` (stereo not drawn), the melting point is 178 to 180 °C.

Take `CC(C)(C)c1cc(NC(=O)NCc2ccc(N)cc2)cc(C(C)(C)C)c1O`: the melting point was in the range of 194 to 195 °C.

Compound `C#CCN(C)c1nccc(Oc2ccc(NC(=O)c3cc(F)cc(N4CCOCC4)c3)c3ccccc23)n1` registered a melting point of 97 to 98 °C.

With `CCCS(=O)(=O)Oc1c(C(=O)c2ccc3c(c2C)C(N(C)C(=O)OC)CCS3(=O)=O)cnn1CC` (stereo not drawn), the melting point was 156 to 159 °C.

For `C=CCN1CC(c2ccc([N+](=O)[O-])cc2F)CCS1(=O)=O` (stereo not drawn), the melting point stood at 121 °C.

Consider `CC(C)(C)C(O)(Cn1cncn1)C(Cl)=CCl` (stereo not drawn), for which the melting point lay within 49 to 52 °C.

In turn, `C=CCOc1cccc(-c2c(O)c3ccc(Cl)cc3[nH]c2=O)c1` displayed a melting point above 300 °C.

Take `CCSc1cc(C)nc(SCC)c1NC(=O)CCCCCCCCSc1nc2cccc(C(F)(F)F)c2o1`: the melting point fell in the range of 115 to 116 °C.

`CCCCCCCNCCCCCCCCSc1nc(-c2ccccc2)c(-c2ccccc2)[nH]1`: the melting point lay in the range of 87 to 89 °C.

`COCCOC(=O)Cc1cccc(Nc2nccc(-c3sc(N)nc3C)n2)c1` yielded a melting point of 182 to 184 °C.

The compound `N#CCOc1ccccc1S(N)(=O)=O` yielded a melting point of 184 to 185 °C.

In turn, `CN(C)CCCC(=O)Nc1nc2c(s1)-c1c(cnn1-c1ccccc1)C2` came in with a melting point of 218 to 222 °C.

Take `CCC(Oc1cccc(C(F)(F)F)n1)C(=O)O` (stereo not drawn): the melting point worked out at 91 °C.

As to `CC1(C)OC(C=Cc2cccnc2)=CC1=O`, the melting point was in the range of 68 to 70 °C.

Compound `COc1cc(Cl)cc(C(=O)C(F)(F)F)c1N` registered a melting point of 124 to 126 °C.

Turning to `COc1ccc(N2CCN(n3cnn(C)c3=O)CC2)cc1`, the melting point was 178 °C.

For the compound `Cc1nnc(-c2ccc3occ(-c4cnn(Cc5ccccn5)c4)c3c2)o1`, the melting point fell in the range of 134 to 135 °C.

`O=C(O)c1ccccc1Nc1ccc(CCCc2ccc(Cl)c(Cl)c2)cc1` came in with a melting point of 120 to 126 °C.

With `C=CCN1C(C)(C)CC(Oc2nc(OC3CC(C)(C)N(CC=C)C(C)(C)C3)nc(OC3CC(C)(C)N(CC=C)C(C)(C)C3)n2)CC1(C)C`, the melting point was 218 to 219 °C.

In the case of `Cc1ccc(CSc2ccc(Cl)cc2)cc1`, the melting point was in the range of 72 to 73 °C.

Regarding `O=c1[nH]c2ccc(Br)cc2c(-c2ccccc2)[n+]1[O-]`, the melting point was in the range of 275 to 276 °C.

With `CCCCCCCC/C=C\c1ccc(C(=O)NOCc2ccccc2)cc1`, the melting point was in the range of 70 to 71 °C.

As for `O=C1COc2c1ccc1ccccc21`, the melting point lay within 191 to 192 °C.

On to `CC(C)(C)Nc1nc(Cl)c(C#N)cc1F`, for which the melting point was in the range of 84 to 85 °C.

The compound `CCCC(=Cc1cccs1)[N+](=O)[O-]` returned a melting point of 25 to 25.5 °C.

As for `Nc1ccc(CN2CCC(=O)C(=C3SC=CS3)C2=O)cc1`, the melting point fell in the range of 156 to 158 °C.

In turn, `CC(C)N1C(=O)C2CC(c3ccc(N)cc3)(C2)C1=O` showed a melting point of 191 to 201 °C.

For the compound `C/C=C/c1ccc2c(NCc3ccc(NC(=O)c4ccc(Cl)nc4)cc3)nc(N(C)C)nc2c1`, the melting point was found to be 185 °C.

Compound `Cc1ncn(-c2nccc3[nH]c(=O)ccc23)c1C` had a melting point of 256 to 258 °C.

The compound `Nc1nc(N)c2c(Sc3ccccc3)cccc2n1` yielded a melting point of 195 to 197 °C.

`CCOC(=O)c1cn2c(n1)SCC2` registered a melting point of 107 to 109 °C.

`CCOC(=O)C1=C(C)NC(c2csc(Cl)n2)=NC1c1ccc(F)cc1Cl` (stereo not drawn) registered a melting point of 141 to 143 °C.

`NS(=O)(=O)c1ccc(S(=O)(=O)CCCc2ccc(O)cc2)s1`: the melting point lay in the range of 112 to 115 °C.

For the compound `N#CC(C#N)(Cc1ccc(Cl)cc1)C1CCCCC1`, the melting point was determined as 108 °C.

Compound `COc1ccc(C(=O)O)cc1C12CC3CC(CC(C3)C1)C2` registered a melting point of 238 to 239 °C.

The compound `CCOCc1nc2c(N)nc3cc(-c4cccc(NS(C)(=O)=O)c4)cnc3c2n1CC(C)(C)F` displayed a melting point of 208 to 209 °C.

Turning to `COC(=O)c1ccc(OCC(N)=O)c(N)c1`, the melting point was in the range of 181 to 182 °C.

In turn, `CCCOc1ccc(S(=O)(=O)N2CCC(C(=O)OCC)CC2)cc1-c1nc2cc(N)c(N)cc2c(=O)[nH]1` yielded a melting point of 197 to 199 °C.

As for `O=C(O)c1cc(-c2cccc(C(F)(F)F)c2)ns1`, the melting point lay within 162 to 164 °C.

`C[Si](C)(C)c1c(CCC=O)cnc2c1CCO2` came in with a melting point of 59 to 60 °C.

As to `CCOC(=O)c1sc(N)nc1C(C)C`, the melting point lay in the range of 174 to 178 °C.

For `C#CCn1c(CC)nc2c(N)nc3ccccc3c21`, the melting point was 182 to 184 °C.

Take `Cc1ccc2nc3c(C)cc(=O)c(Cl)c-3sc2c1`: the melting point lay in the range of 215 to 218 °C.

Take `Cc1ncc2n1-c1ccccc1C(c1ccccc1)=NC2`: the melting point was 180 to 182 °C.

Consider `CCN(c1cc2c3c(c1)CCCC3(C)CCC2)c1ncc(C(=O)O)cn1`, for which the melting point fell in the range of 257 to 258 °C.
